The source of these data is patent publication US20190367516A1 (Bayer Pharma Aktiengesellschaft, priority 2015, published 2019).

The experiment has as its target T1, human M2 receptor (Homo sapiens, UniProt P08172).
T1 sequence (P08172 1-466): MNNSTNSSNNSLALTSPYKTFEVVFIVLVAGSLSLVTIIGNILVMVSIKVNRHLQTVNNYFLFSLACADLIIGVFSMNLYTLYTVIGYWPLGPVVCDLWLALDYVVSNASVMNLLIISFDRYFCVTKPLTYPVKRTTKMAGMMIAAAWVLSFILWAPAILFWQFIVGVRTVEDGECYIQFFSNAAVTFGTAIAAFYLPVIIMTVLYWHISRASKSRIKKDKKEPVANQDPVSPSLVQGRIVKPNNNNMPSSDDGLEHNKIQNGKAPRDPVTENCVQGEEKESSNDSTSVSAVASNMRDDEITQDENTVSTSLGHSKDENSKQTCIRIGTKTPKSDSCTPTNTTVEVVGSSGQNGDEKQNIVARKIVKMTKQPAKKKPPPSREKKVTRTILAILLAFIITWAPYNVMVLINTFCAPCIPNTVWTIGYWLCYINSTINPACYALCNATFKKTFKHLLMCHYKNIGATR
The note with it: for Emax: read-out: Efficiency, boosting of the acetylcholine effect at EC20 acetylcholine concentration.

[1] abbreviates: Receptor activity EC50, M2-GIRK1/4 activation test, acetylcholine at EC20, allosteric potency, in some cases mean values from two or more determinations.
The mark [2] stands for this setting: Receptor activity EC50, allosteric potency at EC20 acetylcholine, M2-GIRK1/4 reporter cells, in some cases mean of two or more determinations.

Where two headings read alike, the source gives them in different places.

The EC50 is the concentration that produces a half-maximal response. Lower therefore signals higher potency in that assay.

For the compound `O=C(NCC(F)(F)F)c1cn(-c2ccc(F)cc2F)c2nc(N3CC[C@H](F)C3)ccc2c1=O` [Example 67, 1-(2,4-Difluorophenyl)-7-[(3S)-3-fluoropyrrolidin-1-yl]-4-oxo-N-(2,2,2-trifluoroethyl)-1,4-dihydro-1,8-naphthyridine-3-carboxamide], a half-maximal response under setting [1] (EC50) required 138 nM. In other words, the sub-micromolar range. Under setting [1], `O=C(NC(c1c(F)cccc1F)C(F)(F)F)c1cn(-c2ccc(F)cc2F)c2nc(N3CC[C@@H](O)C3=O)ccc2c1=O` (stereo partly drawn) [Example 300, 1-(2,4-Difluorophenyl)-N-[1-(2,6-difluorophenyl)-2,2,2-trifluoroethyl]-7-[(3R)-3-hydroxy-2-oxopyrrolidin-1-yl]-4-oxo-1,4-dihydro-1,8-naphthyridine-3-carboxamide] displayed a concentration giving a half-maximal response (EC50) of 54 nM. This EC50 lies about 2.6-fold lower than the previous one. The compound `O=C(NC12CC3CC(CC(C3)C1)C2)c1cn(-c2ccc(F)cc2F)c2nc(N3CC[S+]([O-])C3)ccc2c1=O` (stereo not shown) [Example 131, 1-(2,4-Difluorophenyl)-7-(1-oxido-1,3-thiazolidin-3-yl)-4-oxo-N-(tricyclo[3.3.1.1^3,7]dec-1-yl)-1,4-dihydro-1,8-naphthyridine-3-carboxamide] returned an EC50 under setting [1] of 157 nM. Under setting [2], `CC(NC(=O)c1cn(-c2c(F)cc(F)cc2F)c2nc(N3C[C@@H](O)[C@H](O)C3)ccc2c1=O)(C1CC1)C(F)(F)F` (single isomer, unassigned) [Example 442] came in with an EC50 of 10 nM. For the same compound, the Emax (M2-GIRK1/4 reporter cells) was 100%. The compound `CC[C@@H](NC(=O)c1cn(-c2ccc(F)cc2F)c2nc(N3C(=O)CCC3C)ccc2c1=O)C(F)(F)F` (single isomer, unassigned) [Example 427] registered a concentration giving a half-maximal response (EC50) under setting [2] of 19 nM. Further, the Emax (M2-GIRK1/4 reporter cells) is 91.5%. The like results for `CC(C)[C@H](C)NC(=O)c1cn(-c2c(F)cc(F)cc2F)c2nc(N3C[C@@H](O)[C@H](O)C3)ccc2c1=O` [Example 472, 7-[(3R,4R)-3,4-Dihydroxypyrrolidin-1-yl]-N-[(2S)-3-methylbutan-2-yl]-4-oxo-1-(2,4,6-trifluorophenyl)-1,4-dihydro-1,8-naphthyridine-3-carboxamide] were, in that order, 29 nM and 90%.

`O=C(NC12CC3CC(CC(C3)C1)C2)c1cn(-c2ccc(F)cc2F)c2nc(N3CCC(F)CC3)ccc2c1=O` [Example 5, 1-(2,4-Difluorophenyl)-7-(4-fluoropiperidin-1-yl)-4-oxo-N-(tricyclo[3.3.1.1^3,7]dec-1-yl)-1,4-dihydro-1,8-naphthyridine-3-carboxamide]: the concentration giving a half-maximal response (EC50) under setting [1] came out at 31 nM.

Consider `CC[C@H](NC(=O)c1cn(-c2ccc(F)cc2F)c2nc(N(C)CCF)ccc2c1=O)C(F)(F)F` [Example 103, 1-(2,4-Difluorophenyl)-7-[(2-fluoroethyl)(methyl)amino]-4-oxo-N-[(2S)-1,1,1-trifluorobutan-2-yl]-1,4-dihydro-1,8-naphthyridine-3-carboxamide], for which, under setting [1], the EC50 stood at 50 nM.

For `O=C(NC(c1c(F)cccc1F)C(F)(F)F)c1cn(-c2ccc(F)cc2F)c2nc(N3CCCC(O)C3=O)ccc2c1=O` (single isomer, unassigned) [Example 248, 1-(2,4-Difluorophenyl)-N-[1-(2,6-difluorophenyl)-2,2,2-trifluoroethyl]-7-[3-hydroxy-2-oxopiperidin-1-yl]-4-oxo-1,4-dihydro-1,8-naphthyridine-3-carboxamide], the concentration giving a half-maximal response (EC50) under setting [1] stood at 330 nM. `CC[C@H](NC(=O)c1cn(-c2c(Cl)cc(F)cc2Cl)c2nc(N3CCNC3=O)ccc2c1=O)C(F)(F)F` [Example 654, 1-(2,6-Dichloro-4-fluorophenyl)-4-oxo-7-(2-oxoimidazolidin-1-yl)-N-[(2S)-1,1,1-trifluorobutan-2-yl]-1,4-dihydro-1,8-naphthyridine-3-carboxamide] had an EC50 under setting [2] of 93 nM. In addition, the Emax (M2-GIRK1/4 reporter cells) was found to be 84%. Under setting [1], `CC(C)(CC(F)(F)F)NC(=O)c1cn(-c2c(F)cc(F)cc2Cl)c2nc(N3CCNC3=O)ccc2c1=O` [Example 394, 1-(2-Chloro-4,6-difluorophenyl)-4-oxo-7-(2-oxoimidazolidin-1-yl)-N-(4,4,4-trifluoro-2-methylbutan-2-yl)-1,4-dihydro-1,8-naphthyridine-3-carboxamide] registered a 50% effective concentration (EC50) of 7 nM.

Take `CC[C@H](NC(=O)c1cn(-c2c(F)cccc2Cl)c2nc(N3C[C@@H](O)CC3=O)ccc2c1=O)C(F)(F)F` [Example 351, 1-(2-Chloro-6-fluorophenyl)-7-[(4S)-4-hydroxy-2-oxopyrrolidin-1-yl]-4-oxo-N-[(2S)-1,1,1-trifluorobutan-2-yl]-1,4-dihydro-1,8-naphthyridine-3-carboxamide]: the EC50 under setting [1] worked out at 17 nM.

`O=C(N[C@H](C1CC1)C(F)(F)F)c1cn(-c2c(F)cc(F)cc2F)c2nc(N3CC4CC4(O)C3)ccc2c1=O` (stereo partly drawn) [Example 405, N-[(1R)-1-Cyclopropyl-2,2,2-trifluoroethyl]-7-[1-hydroxy-3-azabicyclo[3.1.0]hex-3-yl]-4-oxo-1-(2,4,6-trifluorophenyl)-1,4-dihydro-1,8-naphthyridine-3-carboxamide] gave an EC50 under setting [2] of 8 nM. The Emax (M2-GIRK1/4 reporter cells) amounted to 95.5%. With `CC[C@@H](NC(=O)c1cn(-c2ccc(F)cc2F)c2nc(N3CCC(C)(O)C3=O)ccc2c1=O)C(F)(F)F` (single isomer, unassigned) [Example 195], under setting [1], a half-maximal effect (EC50) was put at 343 nM.

For the compound `O=C(NC12CC(F)(C1)C2)c1cn(-c2c(F)cc(F)cc2Cl)c2nc(N3C[C@@H](O)CC3=O)ccc2c1=O` [Example 397, 1-(2-Chloro-4,6-difluorophenyl)-N-(3-fluorobicyclo[1.1.1]pent-1-yl)-7-[(4S)-4-hydroxy-2-oxopyrrolidin-1-yl]-4-oxo-1,4-dihydro-1,8-naphthyridine-3-carboxamide], the EC50 under setting [2] came out at 32 nM. In addition, the Emax (M2-GIRK1/4 reporter cells) was found to be 90%. Under setting [1], `CC[C@@H](NC(=O)c1cn(-c2ccc(F)cc2F)c2nc(N3CC(C)(OC)C3)ccc2c1=O)C(F)(F)F` [Example 328, 1-(2,4-Difluorophenyl)-7-(3-methoxy-3-methyazetidin-1-yl)-4-oxo-N-[(2R)-1,1,1-trifluorobutan-2-yl]-1,4-dihydro-1,8-naphthyridine-3-carboxamide] had an EC50 of 79 nM. On the same count and under the same terms, in the case of `CN(C)c1ccc2c(=O)c(C(=O)NC(C)(C)C)cn(-c3ccc(F)cc3F)c2n1` [Example 43, N-tery-Butyl-1-(2,4-difluorophenyl)-7-(dimethylamino)-4-oxo-1,4-dihydro-1,8-naphthyridine-3-carboxamide] it was 141 nM. On to `O=C(N[C@@H](C1CC1)C(F)(F)F)c1cn(-c2c(F)cc(F)cc2F)c2nc(N3CC(O)C3)ccc2c1=O` [Example 662, N-[(1S)-1-Cyclopropyl-2,2,2-trifluoroethyl]-7-(3-hydroxyazetidin-1-yl)-4-oxo-1-(2,4,6-trifluorophenyl)-1,4-dihydro-1,8-naphthyridine-3-carboxamide], for which the EC50 under setting [2] turned out to be 38 nM. The Emax (M2-GIRK1/4 reporter cells) was 100%. In the case of `O=C(N[C@@H](C1CC1)C(F)(F)F)c1cn(-c2c(F)cc(F)cc2F)c2nc(N3CCOC(CO)C3)ccc2c1=O` (mixture of isomers) [Example 463, N-[(1 S)-1-Cyclopropyl-2,2,2-trifluoroethyl]-7-[2-(hydroxymethyl)morpholin-4-yl]-4-oxo-1-(2,4,6-trifluorophenyl)-1,4-dihydro-1,8-naphthyridine-3-carboxamide], under setting [2], the concentration for a half-maximal effect (EC50) came out at 54 nM. In addition, the Emax (M2-GIRK1/4 reporter cells) was found to be 89%. `CC[C@H](NC(=O)c1cn(-c2c(F)cc(F)cc2Cl)c2nc(N3C[C@@](C)(O)C[C@H]3C)ccc2c1=O)C(F)(F)F` [Example 334, 1-(2-Chloro-4,6-difluorophenyl)-7-[(2R,4S)-4-hydroxy-2,4-dimethylpyrrolidin-1-yl]-4-oxo-N-[(2S)-1,1,1-trifluorobutan-2-yl]-1,4-dihydro-1,8-naphthyridine-3-carboxamide] displayed a half-maximal effective concentration (EC50) under setting [1] of 7 nM. Under setting [2], `O=C(N[C@@H](C1CC1)C(F)(F)F)c1cn(-c2c(F)cc(F)cc2F)c2nc(N3CC(CO)(CO)C3)ccc2c1=O` [Example 502, 7-[3,3-Bis(hydroxymethyl)azetidin-1-yl]-N-[(1S)-1-cyclopropyl-2,2,2-trifluoroethyl]-4-oxo-1-(2,4,6-trifluorophenyl)-1,4-dihydro-1,8-naphthyridine-3-carboxamide] had a concentration giving a half-maximal response (EC50) of 30 nM. Moreover, the Emax (M2-GIRK1/4 reporter cells) was 91%. The compound `CCCC(NC(=O)c1cn(-c2ccc(F)cc2F)c2nc(N3CC[C@H](F)C3)ccc2c1=O)C(F)(F)F` (stereo partly drawn) [Example 66, 1-(2,4-Difluorophenyl)-7-[(3S)-3-fluoropyrrolidin-1-yl]-4-oxo-N-[1,1,1-trifluoropentan-2-yl]-1,4-dihydro-1,8-naphthyridine-3-carboxamide] registered an EC50 under setting [1] of 10 nM. Under setting [1], `O=C(NC12CC3CC(CC(C3)C1)C2)c1cn(-c2ccc(F)cc2F)c2nc(N3CCOCC3)ccc2c1=O` [Example 136, 1-(2,4-Difluorophenyl)-7-(morpholin-4-yl)-4-oxo-N-(tricyclo[3.3.1.1^3,7]dec-1-yl)-1,4-dihydro-1,8-naphthyridine-3-carboxamide] returned an EC50 of 24 nM. `O=C(NC12CC(F)(C1)C2)c1cn(-c2c(F)cc(F)cc2Cl)c2nc(N3C[C@@H](O)[C@H](O)C3)ccc2c1=O` [Example 401, 1-(2-Chloro-4,6-difluorophenyl)-7-[(3R,4R)-3,4-dihydroxypyrrolidin-1-yl]-N-(3-fluorobicyclo[1.1.1]pent-1-yl)-4-oxo-1,4-dihydro-1,8-naphthyridine-3-carboxamide] showed a concentration giving a half-maximal response (EC50) under setting [2] of 41 nM. Moreover, where the note is “M2-GIRK1/4 reporter cells”, the Emax is 95.5%.
